Experimental data from patent US11987586B1 (TAKEDA PHARMACEUTICAL COMPANY LIMITED, priority 2022, dated 2024).

Each compound was assayed against T1, human OX2 receptor (Homo sapiens, UniProt O43614) (assay: Measurement of orexin type 2 receptor agonist activity (calcium fluorescence, Fluo-4, FDSS)). Settings: 3 uM test compound; CHO cells expressing human OX2 receptor; DMSO = 0%, 10 nM orexin A (human) = 100%.
T1 construct: expressed in transfected cells
T1 sequence (O43614 1-444): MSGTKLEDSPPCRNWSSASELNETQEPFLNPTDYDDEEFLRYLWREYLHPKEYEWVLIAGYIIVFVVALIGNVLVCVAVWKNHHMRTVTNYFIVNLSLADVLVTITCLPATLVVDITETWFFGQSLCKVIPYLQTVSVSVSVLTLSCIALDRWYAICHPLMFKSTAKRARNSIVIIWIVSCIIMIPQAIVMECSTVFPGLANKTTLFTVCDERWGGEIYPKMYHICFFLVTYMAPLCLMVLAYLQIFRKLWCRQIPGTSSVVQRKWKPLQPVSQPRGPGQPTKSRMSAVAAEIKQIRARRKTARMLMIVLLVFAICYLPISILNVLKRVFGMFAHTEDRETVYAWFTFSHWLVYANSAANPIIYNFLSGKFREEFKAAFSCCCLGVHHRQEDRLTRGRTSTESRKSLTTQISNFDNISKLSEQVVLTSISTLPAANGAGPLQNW
Assay type: cell-based
In short: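 CHO-K1 cells stably expressing human OX2 receptor (residues 1-444) were loaded with Fluo-4 AM plus probenecid. Calcium fluorescence after compound addition was recorded for 1 min 40 s. Activity (%) was scaled between DMSO (0%) and 10 nM orexin A final (100%).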

**Q.** CS(=O)(=O)N[C@@H]1CN2C(=O)N(c3noc4cc(C(F)F)cc(-c5c(F)cc(F)cc5F)c34)C[C@@H]2C1(F)F [Example 274, N-{(6R,7aR)-2-[6-(difluoromethyl)-4-(2,4,6-trifluorophenyl)-1,2-benzoxazol-3-yl]-7,7-difluoro-3-oxohexahydro-1H-pyrrolo[1,2-c]imidazol-6-yl}methanesulfonamide] was tested. Which “OX2R agonist activity (3 uM, %)” value did it give?
**A.** 102%

**Q.** Which “OX2R agonist activity (3 uM, %)” value does the source give for CCS(=O)(=O)N[C@@H]1CN2C(=O)N(c3noc4cc(C)nc(-c5c(F)cccc5F)c34)CC[C@@H]2C1(F)F [Example 275, N-{(4aR,6R)-2-[4-(2,6-difluorophenyl)-6-methyl[1,2]oxazolo[4,5-c]pyridin-3-yl]-5,5-difluoro-1-oxooctahydropyrrolo[1,2-c]pyrimidin-6-yl}ethanesulfonamide] here?
**A.** 103%

**Q.** How did the “OX2R agonist activity (3 uM, %)” value turn out when CS(=O)(=O)N[C@@H]1CN2C(=O)N(c3noc4cccc(-c5cccc(F)c5F)c34)CC[C@@H]2C1(F)F [Example 276, N-{(4aR,6R)-2-[4-(2,3-difluorophenyl)-1,2-benzoxazol-3-yl]-5,5-difluoro-1-oxooctahydropyrrolo[1,2-c]pyrimidin-6-yl}methanesulfonamide] was run?
**A.** 100%

**Q.** For CS(=O)(=O)N[C@@H]1CN2C(=O)N(c3noc4cccc(-c5ccc(F)cc5)c34)CC[C@@H]2C1(F)F [Example 277, N-{(4aR,6R)-5,5-difluoro-2-[4-(4-fluorophenyl)-1,2-benzoxazol-3-yl]-1-oxooctahydropyrrolo[1,2-c]pyrimidin-6-yl}methanesulfonamide], which “OX2R agonist activity (3 uM, %)” value is on record?
**A.** 106%

**Q.** With CS(=O)(=O)N[C@@H]1CN2C(=O)N(c3noc4cccc(-c5cccs5)c34)CC[C@@H]2C1(F)F [Example 278, N-{(4aR,6R)-5,5-difluoro-1-oxo-2-[4-(thiophen-2-yl)-1,2-benzoxazol-3-yl]octahydropyrrolo[1,2-c]pyrimidin-6-yl}methanesulfonamide] as the compound, how does the “OX2R agonist activity (3 uM, %)” value read?
**A.** 109%

**Q.** Which “OX2R agonist activity (3 uM, %)” value does the source give for O=C1N(c2noc3cc(F)cc(-c4c(F)cccc4F)c23)CC[C@H]2N1C[C@@H](NS(=O)(=O)CF)C2(F)F [Example 279, N-{(4aR,6R)-2-[4-(2,6-difluorophenyl)-6-fluoro-1,2-benzoxazol-3-yl]-5,5-difluoro-1-oxooctahydropyrrolo[1,2-c]pyrimidin-6-yl}-1-fluoromethanesulfonamide] here?
**A.** 104%

**Q.** With O=C1N(c2noc3ccc(F)c(-c4c(F)cccc4F)c23)CC[C@H]2N1C[C@@H](NS(=O)(=O)C1CC1)C2(F)F [Example 280, N-{(4aR,6R)-2-[4-(2,6-difluorophenyl)-5-fluoro-1,2-benzoxazol-3-yl]-5,5-difluoro-1-oxooctahydropyrrolo[1,2-c]pyrimidin-6-yl}cyclopropanesulfonamide] as the compound, how does the “OX2R agonist activity (3 uM, %)” value read?
**A.** 101%

**Q.** How did the “OX2R agonist activity (3 uM, %)” value turn out when O=C1N(c2noc3cc(F)cc(-c4c(F)cc(F)cc4F)c23)CC[C@H]2N1C[C@@H](NS(=O)(=O)C1CC1)C2(F)F [Example 281, N-{(4aR,6R)-5,5-difluoro-2-[6-fluoro-4-(2,4,6-trifluorophenyl)-1,2-benzoxazol-3-yl]-1-oxooctahydropyrrolo[1,2-c]pyrimidin-6-yl}cyclopropanesulfonamide] was run?
**A.** 107%

**Q.** With O=c1n(-c2noc3cc(F)cc(-c4c(F)cccc4F)c23)cc2n1C[C@@H](NS(=O)(=O)CF)C2(F)F [Example 283, N-{(6R)-2-[4-(2,6-difluorophenyl)-6-fluoro-1,2-benzoxazol-3-yl]-7,7-difluoro-3-oxo-2,5,6,7-tetrahydro-3H-pyrrolo[1,2-c]imidazol-6-yl}-1-fluoromethanesulfonamide] as the compound, how does the “OX2R agonist activity (3 uM, %)” value read?
**A.** 107%

**Q.** How did the “OX2R agonist activity (3 uM, %)” value turn out when O=C1N(c2noc3cccc(-c4c(F)cccc4F)c23)CC[C@H]2N1C[C@@H](NS(=O)(=O)CF)C2(F)F [Example 284, N-{(4aR,6R)-2-[4-(2,6-difluorophenyl)-1,2-benzoxazol-3-yl]-5,5-difluoro-1-oxooctahydropyrrolo[1,2-c]pyrimidin-6-yl}-1-fluoromethanesulfonamide] was run?
**A.** 109%

**Q.** For O=C1N(c2noc3cccc(-c4c(F)cccc4F)c23)CC[C@H]2N1C[C@@H](NS(=O)(=O)C1CC1)C2(F)F [Example 285, N-{(4aR,6R)-2-[4-(2,6-difluorophenyl)-1,2-benzoxazol-3-yl]-5,5-difluoro-1-oxooctahydropyrrolo[1,2-c]pyrimidin-6-yl}cyclopropanesulfonamide], which “OX2R agonist activity (3 uM, %)” value is on record?
**A.** 105%

**Q.** For Cc1cc2onc(-n3cc4n(c3=O)C[C@@H](NS(=O)(=O)N(C)C)C4(F)F)c2c(-c2c(F)cccc2F)n1 [Example 286, N′-{(6R)-2-[4-(2,6-difluorophenyl)-6-methyl[1,2]oxazolo[4,5-c]pyridin-3-yl]-7,7-difluoro-3-oxo-2,5,6,7-tetrahydro-3H-pyrrolo[1,2-c]imidazol-6-yl}-N,N-dimethylsulfuric diamide], which “OX2R agonist activity (3 uM, %)” value is on record?
**A.** 105%

**Q.** Which “OX2R agonist activity (3 uM, %)” value does the source give for O=C1N(c2noc3cc(F)cc(-c4c(F)cccc4F)c23)C[C@H]2N1C[C@@H](NS(=O)(=O)CF)C2(F)F [Example 287, N-{(6R,7aR)-2-[4-(2,6-difluorophenyl)-6-fluoro-1,2-benzoxazol-3-yl]-7,7-difluoro-3-oxohexahydro-1H-pyrrolo[1,2-c]imidazol-6-yl}-1-fluoromethanesulfonamide] here?
**A.** 101%

**Q.** For O=c1n(-c2noc3cc(F)cc(-c4c(F)cc(F)cc4F)c23)cc2n1C[C@@H](NS(=O)(=O)CF)C2(F)F [Example 288, N-{(6R)-7,7-difluoro-2-[6-fluoro-4-(2,4,6-trifluorophenyl)-1,2-benzoxazol-3-yl]-3-oxo-2,5,6,7-tetrahydro-3H-pyrrolo[1,2-c]imidazol-6-yl}-1-fluoromethanesulfonamide], which “OX2R agonist activity (3 uM, %)” value is on record?
**A.** 101%

**Q.** With CS(=O)(=O)N[C@@H]1CN2C(=O)N(c3noc4cccc(-c5ccc(F)cc5F)c34)CC[C@@H]2C1(F)F [Example 290, N-{(4aR,6R)-2-[4-(2,4-difluorophenyl)-1,2-benzoxazol-3-yl]-5,5-difluoro-1-oxooctahydropyrrolo[1,2-c]pyrimidin-6-yl}methanesulfonamide] as the compound, how does the “OX2R agonist activity (3 uM, %)” value read?
**A.** 106%

**Q.** Which “OX2R agonist activity (3 uM, %)” value does the source give for CS(=O)(=O)N[C@@H]1CN2C(=O)N(c3noc4cccc(-c5ccccc5Cl)c34)CC[C@@H]2C1(F)F [Example 291, N-{(4aR,6R)-2-[4-(2-chlorophenyl)-1,2-benzoxazol-3-yl]-5,5-difluoro-1-oxooctahydropyrrolo[1,2-c]pyrimidin-6-yl}methanesulfonamide] here?
**A.** 106%

**Q.** CS(=O)(=O)N[C@@H]1CN2C(=O)N(c3noc4cccc(-c5cc(F)ccc5F)c34)CC[C@@H]2C1(F)F [Example 292, N-{(4aR,6R)-2-[4-(2,5-difluorophenyl)-1,2-benzoxazol-3-yl]-5,5-difluoro-1-oxooctahydropyrrolo[1,2-c]pyrimidin-6-yl}methanesulfonamide] was tested. Which “OX2R agonist activity (3 uM, %)” value did it give?
**A.** 106%

**Q.** For O=c1n(-c2noc3ccc(F)c(-c4c(F)cc(F)cc4F)c23)cc2n1C[C@@H](NS(=O)(=O)CF)C2(F)F [Example 293, N-{(6R)-7,7-difluoro-2-[5-fluoro-4-(2,4,6-trifluorophenyl)-1,2-benzoxazol-3-yl]-3-oxo-2,5,6,7-tetrahydro-3H-pyrrolo[1,2-c]imidazol-6-yl}-1-fluoromethanesulfonamide], which “OX2R agonist activity (3 uM, %)” value is on record?
**A.** 113%

**Q.** With COc1cc(-c2c(F)cc(F)cc2F)c2c(N3CC[C@H]4N(C[C@@H](NS(C)(=O)=O)C4(F)F)C3=O)noc2n1 [Example 294, N-{(4aR,6R)-5,5-difluoro-2-[6-methoxy-4-(2,4,6-trifluorophenyl)[1,2]oxazolo[5,4-b]pyridin-3-yl]-1-oxooctahydropyrrolo[1,2-c]pyrimidin-6-yl}methanesulfonamide] as the compound, how does the “OX2R agonist activity (3 uM, %)” value read?
**A.** 104%

**Q.** How did the “OX2R agonist activity (3 uM, %)” value turn out when CS(=O)(=O)N[C@@H]1CN2C(=O)N(c3noc4cc(F)cc(-c5ncc(F)cc5F)c34)CC[C@@H]2C1(F)F [Example 295, N-{(4aR,6R)-2-[4-(3,5-difluoropyridin-2-yl)-6-fluoro-1,2-benzoxazol-3-yl]-5,5-difluoro-1-oxooctahydropyrrolo[1,2-c]pyrimidin-6-yl}methanesulfonamide] was run?
**A.** 113%

**Q.** CS(=O)(=O)N[C@@H]1CN2C(=O)N(c3noc4cc(OC(F)F)cc(-c5c(F)cc(F)cc5F)c34)CC[C@@H]2C1(F)F [Example 296, N-{(4aR,6R)-2-[6-(difluoromethoxy)-4-(2,4,6-trifluorophenyl)-1,2-benzoxazol-3-yl]-5,5-difluoro-1-oxooctahydropyrrolo[1,2-c]pyrimidin-6-yl}methanesulfonamide] was tested. Which “OX2R agonist activity (3 uM, %)” value did it give?
**A.** 102%

**Q.** For O=C1N(c2noc3cc(F)c(F)c(-c4c(F)cc(F)cc4F)c23)CC[C@H]2N1C[C@@H](NS(=O)(=O)CF)C2(F)F [Example 297, N-{(4aR,6R)-2-[5,6-difluoro-4-(2,4,6-trifluorophenyl)-1,2-benzoxazol-3-yl]-5,5-difluoro-1-oxooctahydropyrrolo[1,2-c]pyrimidin-6-yl}-1-fluoromethanesulfonamide], which “OX2R agonist activity (3 uM, %)” value is on record?
**A.** 107%
